# Experimental data from patent US9315467B2, “Compounds for nonsense suppression, and methods for their use” (priority 2004, dated 2016).
row,SMILES,melting point [°C]
1,"Cc1cnc(-c2cccc(C(=O)O)c2)nc1-c1ccccc1F [Compound 54, 3-[4-(2-Fluoro-phenyl)-5-methyl-pyrimidin-2-yl]-benzoic acid]",279 to 281
2,"COc1ccc(-c2nccc(-c3ccc(C(=O)O)cc3)n2)cc1 [Compound 30, 4-[2-(4-Methoxy-phenyl)-pyrimidin-4-yl]-benzoic acid]",> 300
3,"Cc1ccc(-c2cc(-c3cccc(C(=O)O)c3)ncn2)cc1 [Compound 3, 3-(6-p-Tolyl-pyrimidin-4-yl)-benzoic acid]",201 to 203
4,"O=C(O)c1ccc(-c2nccc(-c3cccc(C(F)(F)F)c3)n2)cc1 [Compound 63, 4-[4-(3-Trifluoromethyl-phenyl)-pyrimidin-2-yl]-benzoic acid]",271 to 273
5,"O=C(O)c1ccc(-c2nccc(-c3ccc4c(c3)OCCO4)n2)cc1 [Compound 40, 4-[4-(2,3-Dihydro-benzo[1,4]dioxin-6-yl)-pyrimidin-2-yl]-benzoic acid]",272 to 274
6,"O=C(O)c1cccc(-c2nccc(-c3ccc4c(c3)OCCO4)n2)c1 [Compound 42, 3-[4-(2,3-Dihydro-benzo[1,4]dioxin-6-yl)-pyrimidin-2-yl]-benzoic acid]",239 to 241
7,"O=C(O)c1ccc(-c2ccnc(-c3ccc(F)cc3)n2)cc1 [Compound 18, 4-[2-(4-Fluoro-phenyl)-pyrimidin-4-yl]-benzoic acid]",> 300
8,"O=C(O)c1cccc(-c2nccc(-c3ccc(Br)cc3)n2)c1 [Compound 68, 3-[4-(4-Bromo-phenyl)-pyrimidin-2-yl]-benzoic acid]",> 300
9,"O=C(O)c1cccc(-c2nccc(-c3ccc(C(F)(F)F)cc3)n2)c1 [Compound 78, 3-[4-(4-Trifluoromethyl-phenyl)-pyrimidin-2-yl]-benzoic acid]",271 to 273
10,"O=C(O)c1ccc(-c2ccnc(-c3ccccc3C(F)(F)F)n2)cc1 [Compound 31, 4-[2-(2-Trifluoromethyl-phenyl)-pyrimidin-4-yl]-benzoic acid]",251 to 252
11,"O=C(O)c1cccc(-c2nccc(-c3ccccc3F)n2)c1 [Compound 72, 3-[4-(2-Fluoro-phenyl)-pyrimidin-2-yl]-benzoic acid]",201 to 203
12,"CC(C)(C)c1ccc(-c2nccc(-c3ccc(C(=O)O)cc3)n2)cc1 [Compound 17, 4-[2-(4-tert-Butyl-phenyl)-pyrimidin-4-yl]-benzoic acid]",293 to 296
13,"CCOc1ccc(-c2ncnc(-c3cccc(C(=O)O)c3)n2)cc1 [Compound 45, 3-[4-(4-Ethoxy-phenyl)-[1,3,5]triazin-2-yl]-benzoic acid]",269 to 272
14,"O=C(O)c1cccc(-c2nccc(-c3ccc(-c4ccccc4)cc3)n2)c1 [Compound 75, 3-(4-Biphenyl-4-yl-pyrimidin-2-yl)-benzoic acid]",296 to 299
15,"COc1ccc(-c2ncnc(-c3cccc(C(=O)O)c3)n2)cc1 [Compound 48, 3-[4-(4-Methoxy-phenyl)-[1,3,5]triazin-2-yl]-benzoic acid]",307 to 309
16,"Cc1cccc(-c2ccnc(-c3ccc(C(=O)O)cc3)n2)c1 [Compound 64, 4-(4-m-Tolyl-pyrimidin-2-yl)-benzoic acid]",220 to 222
17,"O=C(O)c1cccc(-c2nccc(-c3cccc(F)c3)n2)c1 [Compound 74, 3-[4-(3-Fluoro-phenyl)-pyrimidin-2-yl]-benzoic acid]",253 to 255
18,"O=C(O)c1ccc(-c2nccc(-c3ccc(-c4ccccc4)cc3)n2)cc1 [Compound 39, 4-(4-Biphenyl-4-yl-pyrimidin-2-yl)-benzoic acid]",293 to 296
19,"O=C(O)c1ccc(-c2nccc(-c3ccc(N4CCOCC4)cc3)n2)cc1 [Compound 67, 4-[4-(4-Morpholin-4-yl-phenyl)-pyrimidin-2-yl]-benzoic acid]",289 to 291
20,"Cc1ccc(-c2cccc(-c3ccc(C(=O)O)cc3)n2)cc1 [Compound 14, 4-(6-p-Tolyl-pyridin-2-yl)-benzoic acid]",283 to 284
21,"Cc1cc(-c2ccc(F)cc2)nc(-c2cccc(C(=O)O)c2)n1 [Compound 56, 3-[4-(4-Fluoro-phenyl)-6-methyl-pyrimidin-2-yl]-benzoic acid]",305 to 307
22,"COc1ccc(-c2ccnc(-c3cccc(C(=O)O)c3)n2)cc1OC [Compound 58, 3-[4-(3,4-Dimethoxy-phenyl)-pyrimidin-2-yl]-benzoic acid]",240 to 243
23,"O=C(O)c1ccc(-c2nccc(-c3ccccc3F)n2)cc1 [Compound 65, 4-[4-(2-Fluoro-phenyl)-pyrimidin-2-yl]-benzoic acid]",234 to 236
24,"COc1ccc(-c2ccnc(-c3cccc(C(=O)O)c3)n2)cc1 [Compound 71, 3-[4-(4-Methoxy-phenyl)-pyrimidin-2-yl]-benzoic acid]",243 to 244
25,"O=C(O)c1ccc(-c2nccc(-c3ccc(-n4ccnc4)cc3)n2)cc1 [Compound 41, 4-[4-(4-Imidazol-1-yl-phenyl)-pyrimidin-2-yl]-benzoic acid]",> 305

row,SMILES,melting point [°C]
1,"O=C(O)c1ccc(-c2ccnc(-c3cccc(Cl)c3)n2)cc1 [Compound 20, 4-[2-(3-Chloro-phenyl)-pyrimidin-4-yl]-benzoic acid]",291 to 294
2,"O=C(O)c1cccc(-c2ncnc(-c3ccc(F)cc3)n2)c1 [Compound 44, 3-[4-(4-Fluoro-phenyl)-[1,3,5]triazin-2-yl]-benzoic acid]",266 to 269
3,"O=C(O)c1cccc(-c2nccc(-c3ccc(-n4ccnc4)cc3)n2)c1 [Compound 79, 3-[4-(4-Imidazol-1-yl-phenyl)-pyrimidin-2-yl]-benzoic acid]",> 310
4,"COc1ccc(-c2ccnc(-c3ccc(C(=O)O)cc3)n2)cc1 [Compound 37, 4-[4-(4-Methoxy-phenyl)-pyrimidin-2-yl]-benzoic acid]",263 to 265
5,"O=C(O)c1ccc(-c2ccnc(-c3ccc(Cl)cc3)n2)cc1 [Compound 22, 4-[2-(4-Chloro-phenyl)-pyrimidin-4-yl]-benzoic acid]",> 300
6,"Cc1ccc(-c2cc(-c3ccc(C(=O)O)cc3)ccn2)cc1 [Compound 12, 4-(2-p-Tolyl-pyridin-4-yl)-benzoic acid]",286 to 289
7,"O=C(O)c1ccc(-c2nccc(-c3ccc(Br)cc3)n2)cc1 [Compound 33, 4-[4-(4-Bromo-phenyl)-pyrimidin-2-yl]-benzoic acid]",302 to 305
8,"Cc1cccc(-c2ccnc(-c3cccc(C(=O)O)c3)n2)c1 [Compound 76, 3-(4-m-Tolyl-pyrimidin-2-yl)-benzoic acid]",217 to 219
9,"O=C(O)c1ccc(-c2nccc(-c3ccc(OC(F)(F)F)cc3)n2)cc1 [Compound 34, 4-[4-(4-Trifluoromethoxy-phenyl)-pyrimidin-2-yl]-benzoic acid]",234 to 236
10,"O=C(O)c1ccc(-c2nccc(-c3ccc(C(F)(F)F)cc3)n2)cc1 [Compound 66, 4-[4-(4-Trifluoromethyl-phenyl)-pyrimidin-2-yl]-benzoic acid]",282 to 285
11,"CC(C)c1ccc(-c2ccnc(-c3ccc(C(=O)O)cc3)n2)cc1 [Compound 36, 4-[4-(4-Isopropyl-phenyl)-pyrimidin-2-yl]-benzoic acid]",243 to 245
12,"O=C(O)c1ccc(-c2ccnc(-c3ccc(C(F)(F)F)cc3)n2)cc1 [Compound 21, 4-[2-(4-Trifluoromethyl-phenyl)-pyrimidin-4-yl]-benzoic acid]",> 300
13,"O=C(O)c1ccc(-c2nccc(-c3cccc(F)c3)n2)cc1 [Compound 38, 4-[4-(3-Fluoro-phenyl)-pyrimidin-2-yl]-benzoic acid]",249 to 252
14,"COc1ccc(-c2ncnc(-c3ccc(C(=O)O)cc3)n2)cc1 [Compound 53, 4-[4-(4-Methoxy-phenyl)-[1,3,5]triazin-2-yl]-benzoic acid]",> 300
15,"Cc1ccccc1-c1nccc(-c2ccc(C(=O)O)cc2)n1 [Compound 26, 4-(2-o-Tolyl-pyrimidin-4-yl)-benzoic acid]",198 to 200
16,"Cc1ccc(-c2cncc(-c3ccc(C(=O)O)cc3)c2)cc1 [Compound 15, 4-(5-p-Tolyl-pyridin-3-yl)-benzoic acid]",260 to 262
17,"Cc1ccc(-c2ccnc(-c3ccc(C(=O)O)cc3)c2)cc1 [Compound 13, 4-(4-p-Tolyl-pyridin-2-yl)-benzoic acid]",288 to 291
18,"COc1cccc(-c2nccc(-c3ccc(C(=O)O)cc3)n2)c1 [Compound 16, 4-[2-(3-Methoxy-phenyl)-pyrimidin-4-yl]-benzoic acid]",270 to 273
19,"O=C(O)c1ccc(-c2ccnc(-c3ccccc3F)n2)cc1 [Compound 23, 4-[2-(2-Fluoro-phenyl)-pyrimidin-4-yl]-benzoic acid]",> 300
20,"O=C(O)c1cccc(-c2nccc(-c3cccc(C(F)(F)F)c3)n2)c1 [Compound 77, 3-[4-(3-Trifluoromethyl-phenyl)-pyrimidin-2-yl]-benzoic acid]",271 to 273
21,"CN(C)c1ccc(-c2ccnc(-c3cccc(C(=O)O)c3)n2)cc1 [Compound 60, 3-[4-(4-Dimethylamino-phenyl)-pyrimidin-2-yl]-benzoic acid]",281 to 283
22,"O=C(O)c1cccc(-c2ncnc(-c3cccc(F)c3)n2)c1 [Compound 49, 3-[4-(3-Fluoro-phenyl)-[1,3,5]triazin-2-yl]-benzoic acid]",273 to 276
23,"O=C(O)c1ccc(-c2ccnc(-c3ccc(OC(F)(F)F)cc3)n2)cc1 [Compound 27, 4-[2-(4-Trifluoromethoxy-phenyl)-pyrimidin-4-yl]-benzoic acid]",299 to 302
24,"O=C(O)c1ccc(-c2ccnc(-c3cccc(OC(F)(F)F)c3)n2)cc1 [Compound 19, 4-[2-(3-Trifluoromethoxy-phenyl)-pyrimidin-4-yl]-benzoic acid]",> 300
25,"Cc1ccc(-c2nccc(-c3ccc(C(=O)O)cc3)n2)cc1 [Compound 10, 4-(2-p-Tolyl-pyrimidin-4-yl)-benzoic acid]",> 310
